According to ChEMBL document CHEMBL1201862, “PubChem BioAssay data set” (2004):
Active and inactive are the calls of the source.

Assays:
Genome polyprotein = Genome polyprotein (Hepatitis C virus, UniProt Q2Q167); assay: HCV core protein dimerization inhibitors, dose response, biochemical, TR-FRET (AID 2159); parameters: species or system Hepacivirus hominis;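 further: blocks dimerization of HCV core protein measured by TR-FRET between tagged core106 pairs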
Protein Tat = Protein Tat (Human immunodeficiency virus type 1 group M subtype B (isolate HXB2)(HIV-1), UniProt P04608); assay type: functional;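 further: tat binding to TAR RNA read out by fluorescence polarization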
Protein Tat, sequence (P04608 whole entry): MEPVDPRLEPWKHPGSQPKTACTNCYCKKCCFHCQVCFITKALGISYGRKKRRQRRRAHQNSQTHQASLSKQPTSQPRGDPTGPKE

Cytochrome P450 2D6 = Cytochrome P450 2D6 (Homo sapiens, UniProt P10635);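 further: CYP2D6 member of a cytochrome P450 panel assay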
Cytochrome P450 2D6, sequence (P10635 whole entry): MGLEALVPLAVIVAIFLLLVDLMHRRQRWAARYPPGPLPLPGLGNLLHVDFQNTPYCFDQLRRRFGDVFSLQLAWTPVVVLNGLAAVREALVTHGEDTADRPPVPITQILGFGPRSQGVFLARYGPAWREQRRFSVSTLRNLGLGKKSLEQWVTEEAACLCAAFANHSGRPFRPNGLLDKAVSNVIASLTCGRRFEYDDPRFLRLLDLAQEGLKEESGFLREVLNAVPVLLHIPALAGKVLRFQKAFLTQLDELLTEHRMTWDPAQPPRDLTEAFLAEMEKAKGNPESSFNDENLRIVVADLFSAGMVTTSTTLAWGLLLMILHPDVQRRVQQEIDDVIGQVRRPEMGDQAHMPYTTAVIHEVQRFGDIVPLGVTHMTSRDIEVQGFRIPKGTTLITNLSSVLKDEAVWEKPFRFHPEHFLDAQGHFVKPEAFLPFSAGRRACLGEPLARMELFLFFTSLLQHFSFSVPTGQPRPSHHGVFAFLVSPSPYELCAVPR

Ephrin type-A receptor 4 = Ephrin type-A receptor 4 (Mus musculus, UniProt Q03137); assay: inhibitors of EphA4 binding to KYL peptide, primary screen, biochemical, colorimetric, mouse EphA4 (AID 689); assay type: functional
Ephrin type-A receptor 4, sequence (Q03137 whole entry): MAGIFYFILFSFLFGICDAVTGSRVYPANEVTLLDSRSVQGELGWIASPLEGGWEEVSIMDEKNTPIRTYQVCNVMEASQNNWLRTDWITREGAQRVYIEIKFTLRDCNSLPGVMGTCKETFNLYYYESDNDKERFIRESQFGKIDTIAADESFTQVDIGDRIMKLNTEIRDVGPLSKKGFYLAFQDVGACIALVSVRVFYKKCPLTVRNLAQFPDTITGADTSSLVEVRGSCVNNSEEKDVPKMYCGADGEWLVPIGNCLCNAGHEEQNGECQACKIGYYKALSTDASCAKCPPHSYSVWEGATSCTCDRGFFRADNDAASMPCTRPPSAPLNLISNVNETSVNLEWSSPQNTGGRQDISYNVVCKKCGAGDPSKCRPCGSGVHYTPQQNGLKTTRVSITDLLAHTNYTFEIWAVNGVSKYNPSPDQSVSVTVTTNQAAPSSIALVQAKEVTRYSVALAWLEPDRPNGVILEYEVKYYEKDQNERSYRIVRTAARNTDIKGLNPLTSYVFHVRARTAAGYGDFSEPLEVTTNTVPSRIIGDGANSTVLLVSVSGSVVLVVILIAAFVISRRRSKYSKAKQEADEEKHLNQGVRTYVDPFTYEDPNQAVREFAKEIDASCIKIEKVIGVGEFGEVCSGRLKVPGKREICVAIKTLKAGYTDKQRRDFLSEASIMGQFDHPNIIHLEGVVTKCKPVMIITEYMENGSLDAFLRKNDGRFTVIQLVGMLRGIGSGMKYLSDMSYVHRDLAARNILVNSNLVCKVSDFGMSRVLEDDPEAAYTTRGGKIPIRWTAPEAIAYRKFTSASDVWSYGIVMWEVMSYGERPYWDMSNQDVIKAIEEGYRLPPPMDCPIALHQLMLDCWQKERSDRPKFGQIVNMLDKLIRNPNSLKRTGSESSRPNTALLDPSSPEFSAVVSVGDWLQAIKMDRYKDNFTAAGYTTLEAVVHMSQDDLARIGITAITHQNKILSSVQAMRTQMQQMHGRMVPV

[1] = biological target: Induced myeloid leukemia cell differentiation protein Mcl-1 (Homo sapiens, UniProt Q07820); assay type: functional
Induced myeloid leukemia cell differentiation protein Mcl-1, sequence (Q07820 whole entry): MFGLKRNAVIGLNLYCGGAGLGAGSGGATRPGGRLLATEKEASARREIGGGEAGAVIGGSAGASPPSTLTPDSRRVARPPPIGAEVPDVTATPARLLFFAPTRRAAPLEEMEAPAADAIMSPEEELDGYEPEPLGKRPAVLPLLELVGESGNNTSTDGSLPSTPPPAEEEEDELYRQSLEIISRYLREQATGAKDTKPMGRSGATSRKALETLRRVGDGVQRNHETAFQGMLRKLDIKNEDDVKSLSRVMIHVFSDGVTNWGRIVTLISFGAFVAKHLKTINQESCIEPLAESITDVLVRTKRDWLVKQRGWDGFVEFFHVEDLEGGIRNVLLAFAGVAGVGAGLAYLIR

Caspase-6 = Caspase-6 (Homo sapiens, UniProt P55212); assay: human caspase-6 inhibitors, dose response, biochemical, VEID-R110 fluorescence, cherry-pick (AID 720632)
Caspase-6, sequence (P55212 24-179 limits assumed): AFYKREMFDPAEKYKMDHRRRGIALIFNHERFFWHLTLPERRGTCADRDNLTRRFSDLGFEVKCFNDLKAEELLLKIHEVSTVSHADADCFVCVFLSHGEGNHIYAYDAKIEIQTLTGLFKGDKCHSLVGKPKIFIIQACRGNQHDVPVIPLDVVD
Caspase-6, sequence (P55212 194-293 limits assumed): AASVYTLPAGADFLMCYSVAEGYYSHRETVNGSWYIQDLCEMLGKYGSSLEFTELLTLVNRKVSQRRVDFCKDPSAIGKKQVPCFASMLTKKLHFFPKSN

Kallikrein-7 = Kallikrein-7 (Homo sapiens, UniProt P49862); assay: Fluorescence Intensity-based biochemical primary high throughput dose response assay to identify activators of kallikrein-7 (K7) zymogen.
Kallikrein-7, sequence (P49862 whole entry): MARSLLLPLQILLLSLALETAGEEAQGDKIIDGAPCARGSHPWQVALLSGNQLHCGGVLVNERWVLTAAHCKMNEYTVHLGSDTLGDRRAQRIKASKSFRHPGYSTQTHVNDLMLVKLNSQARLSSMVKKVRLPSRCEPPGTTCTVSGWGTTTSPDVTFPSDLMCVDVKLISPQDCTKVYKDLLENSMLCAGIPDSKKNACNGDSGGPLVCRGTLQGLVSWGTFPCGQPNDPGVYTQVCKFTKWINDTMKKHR

cells [2] = assay: cells
cells [3] = assay: cells; remark: listed apart in the source
[4] = biological target: T1, Oxysterols receptor LXR-beta (Homo sapiens, UniProt P55055); assay type: functional, cell-based;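 further: Cell-based luminescence dose-response assay of agonist activity at LXR, run as a confirmatory counterscreen to a daf-12 agonist screen; HEK293 cells with Gal4-LXR fusion and GAL4-driven luciferase reporter; agonist potency from rising luciferase signal of a Gal4-LXR reporter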
T1 sequence (P55055 whole entry): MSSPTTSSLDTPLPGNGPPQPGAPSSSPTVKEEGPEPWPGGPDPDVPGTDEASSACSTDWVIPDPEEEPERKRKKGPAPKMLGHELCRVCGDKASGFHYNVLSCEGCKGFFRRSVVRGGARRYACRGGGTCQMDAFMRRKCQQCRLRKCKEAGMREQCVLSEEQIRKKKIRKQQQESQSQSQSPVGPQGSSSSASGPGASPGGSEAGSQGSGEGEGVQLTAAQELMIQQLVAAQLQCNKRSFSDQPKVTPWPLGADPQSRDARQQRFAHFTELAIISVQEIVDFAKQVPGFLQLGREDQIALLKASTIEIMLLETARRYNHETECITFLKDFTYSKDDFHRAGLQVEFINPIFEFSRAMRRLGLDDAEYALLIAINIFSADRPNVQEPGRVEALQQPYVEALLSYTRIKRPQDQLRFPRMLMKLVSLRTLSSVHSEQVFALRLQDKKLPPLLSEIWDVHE

Streptococcus = assay: Group A Streptococcus viability loss, dose response, counter-screen for streptokinase expression inhibitor project, luminescence, BacTiterGlo (AID 1915); assay type: functional, organism-based;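 further: potency for reduction of bacterial viability or growth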
[5] = cytotoxicity toward NIH3T3 fibroblasts, dose response, counter-screen, cell-based, ATP luminescence, mouse fibroblasts (AID 2010); assay type: functional;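 further: cells exposed to compound for about 90 hours before reading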
[6] = test system: Streptococcus sp. 'group A'; assay: growth inhibition of control SK(-) GAS strain, dose response, counter-screen for streptokinase expression inhibitor project, luminescence, kanamycin, BacTiterGlo, confirmation (AID 1900); assay type: functional, organism-based
[7] = inhibitors of intracellular T. cruzi replication, confirmation, NIH3T3 host cells, beta-gal luminescence (AID 2044); assay type: functional, cell-based;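 further: intracellular parasites grown in NIH/3T3 mouse fibroblasts as host cells; luminescent beta-galactosidase reporter signal from transgenic T. cruzi replicating inside host cells; inhibitors lower the luminescence signal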
[8] = HepG2 cell cytotoxicity, dose response, cytotoxicity control, ATP luminescence, cherry-pick, activator set 2 (AID 1053143); assay type: functional, cell-based
Streptokinase A = biological target: T2, Streptokinase A (Streptococcus pyogenes serotype M1, UniProt P10520); assay: S. pyogenes streptokinase expression inhibitors, potency, dose response, plasminogen activation absorbance, OD405 (AID 1914); assay type: functional, Streptococcus pyogenes M1 GAS;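 further: secreted streptokinase activity via plasminogen activation per viability signal from cell pellet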
T2 sequence (P10520 whole entry): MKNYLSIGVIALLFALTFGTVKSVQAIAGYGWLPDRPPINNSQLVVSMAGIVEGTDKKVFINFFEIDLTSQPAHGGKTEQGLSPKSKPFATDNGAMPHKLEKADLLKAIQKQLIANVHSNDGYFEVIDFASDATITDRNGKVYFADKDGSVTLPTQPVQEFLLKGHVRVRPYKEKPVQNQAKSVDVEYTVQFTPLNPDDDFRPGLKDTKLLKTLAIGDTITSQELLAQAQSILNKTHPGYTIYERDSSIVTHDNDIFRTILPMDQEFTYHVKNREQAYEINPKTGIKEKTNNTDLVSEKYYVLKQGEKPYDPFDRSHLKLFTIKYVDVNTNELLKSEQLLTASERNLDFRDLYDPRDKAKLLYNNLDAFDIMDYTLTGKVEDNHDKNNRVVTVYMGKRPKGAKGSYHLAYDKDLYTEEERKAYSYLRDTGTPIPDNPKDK

HT-1080 = assay: cytotoxicity in HT1080 fibrosarcoma cells, cell-based, fluorescence readout (AID 620); assay type: functional; conditions: Homo sapiens
[9] = biological target: Luciferin 4-monooxygenase (Photinus pyralis, UniProt P08659); assay: Counter Screen for Luciferase-based Assay Positives. [Related pubchem assays: 620, 618, 411 ]
[10] = inhibitors of PGC1a acetylation in cells, dose response, cell-based, cherry-picked samples (AID 720514); assay type: functional;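 further: potency may reflect raised or lowered acetylation signal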
[11] = inhibitors of fibronectin matrix deposition, dose response, AH1F cells, Alexa488-FN fluorescence, cherry-picks (AID 1035475); assay type: functional, cell-based
[12] = P. falciparum Dd2 growth inhibitors, dose response, SYBR Green, cherry-picked samples (AID 1159567); assay type: functional, cell-based
[13] = HepG2 cell cytotoxicity, dose response, cytotoxicity control, cherry-picked samples (AID 1159577); assay type: functional, cell-based
[14] = Luminescence Cell-Based Dose Confirmation HTS to Identify Activators of 5'UTR Stem-Loop Driven Alpha-Synuclein mRNA Translation in H4 Neuroglioblastoma Cells. [Related pubchem assays: 1829 (Project Summary), 1814 (Primary HTS)]; assay type: functional
cells [15] = conditions: A549
H4 = assay: Luminescence Cell-Based Dose Response HTS to Identify Activators of 5'UTR Stem-Loop Driven Prion Protein mRNA Translation in H4 Neuroglioblastoma Cells. [Related pubchem assays: 1829 (Project Summary), 1814 (Primary HTS)]; assay type: functional; conditions: Homo sapiens
[16] = biological target: Peroxisome proliferator-activated receptor gamma/Nuclear receptor coactivator 3 (Homo sapiens, UniProt P37231); assay type: functional;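 further: agonist potency for raising coactivator recruitment to the receptor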
Peroxisome proliferator-activated receptor gamma/Nuclear receptor coactivator 3, sequence (P37231 whole entry): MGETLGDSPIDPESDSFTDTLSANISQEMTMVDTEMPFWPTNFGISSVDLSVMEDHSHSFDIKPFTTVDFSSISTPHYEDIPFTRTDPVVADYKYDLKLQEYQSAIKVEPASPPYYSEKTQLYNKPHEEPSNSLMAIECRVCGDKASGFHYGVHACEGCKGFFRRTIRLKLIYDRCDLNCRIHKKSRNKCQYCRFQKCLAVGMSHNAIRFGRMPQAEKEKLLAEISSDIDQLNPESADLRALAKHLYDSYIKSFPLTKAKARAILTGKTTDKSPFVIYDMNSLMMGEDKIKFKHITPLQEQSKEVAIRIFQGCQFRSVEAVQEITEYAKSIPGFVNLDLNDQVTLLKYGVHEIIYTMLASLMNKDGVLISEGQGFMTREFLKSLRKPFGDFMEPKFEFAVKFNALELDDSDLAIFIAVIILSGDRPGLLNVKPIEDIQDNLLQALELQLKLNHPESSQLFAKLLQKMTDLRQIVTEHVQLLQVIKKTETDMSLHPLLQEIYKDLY
Peroxisome proliferator-activated receptor gamma/Nuclear receptor coactivator 3, sequence (Q9Y6Q9 whole entry, further chain): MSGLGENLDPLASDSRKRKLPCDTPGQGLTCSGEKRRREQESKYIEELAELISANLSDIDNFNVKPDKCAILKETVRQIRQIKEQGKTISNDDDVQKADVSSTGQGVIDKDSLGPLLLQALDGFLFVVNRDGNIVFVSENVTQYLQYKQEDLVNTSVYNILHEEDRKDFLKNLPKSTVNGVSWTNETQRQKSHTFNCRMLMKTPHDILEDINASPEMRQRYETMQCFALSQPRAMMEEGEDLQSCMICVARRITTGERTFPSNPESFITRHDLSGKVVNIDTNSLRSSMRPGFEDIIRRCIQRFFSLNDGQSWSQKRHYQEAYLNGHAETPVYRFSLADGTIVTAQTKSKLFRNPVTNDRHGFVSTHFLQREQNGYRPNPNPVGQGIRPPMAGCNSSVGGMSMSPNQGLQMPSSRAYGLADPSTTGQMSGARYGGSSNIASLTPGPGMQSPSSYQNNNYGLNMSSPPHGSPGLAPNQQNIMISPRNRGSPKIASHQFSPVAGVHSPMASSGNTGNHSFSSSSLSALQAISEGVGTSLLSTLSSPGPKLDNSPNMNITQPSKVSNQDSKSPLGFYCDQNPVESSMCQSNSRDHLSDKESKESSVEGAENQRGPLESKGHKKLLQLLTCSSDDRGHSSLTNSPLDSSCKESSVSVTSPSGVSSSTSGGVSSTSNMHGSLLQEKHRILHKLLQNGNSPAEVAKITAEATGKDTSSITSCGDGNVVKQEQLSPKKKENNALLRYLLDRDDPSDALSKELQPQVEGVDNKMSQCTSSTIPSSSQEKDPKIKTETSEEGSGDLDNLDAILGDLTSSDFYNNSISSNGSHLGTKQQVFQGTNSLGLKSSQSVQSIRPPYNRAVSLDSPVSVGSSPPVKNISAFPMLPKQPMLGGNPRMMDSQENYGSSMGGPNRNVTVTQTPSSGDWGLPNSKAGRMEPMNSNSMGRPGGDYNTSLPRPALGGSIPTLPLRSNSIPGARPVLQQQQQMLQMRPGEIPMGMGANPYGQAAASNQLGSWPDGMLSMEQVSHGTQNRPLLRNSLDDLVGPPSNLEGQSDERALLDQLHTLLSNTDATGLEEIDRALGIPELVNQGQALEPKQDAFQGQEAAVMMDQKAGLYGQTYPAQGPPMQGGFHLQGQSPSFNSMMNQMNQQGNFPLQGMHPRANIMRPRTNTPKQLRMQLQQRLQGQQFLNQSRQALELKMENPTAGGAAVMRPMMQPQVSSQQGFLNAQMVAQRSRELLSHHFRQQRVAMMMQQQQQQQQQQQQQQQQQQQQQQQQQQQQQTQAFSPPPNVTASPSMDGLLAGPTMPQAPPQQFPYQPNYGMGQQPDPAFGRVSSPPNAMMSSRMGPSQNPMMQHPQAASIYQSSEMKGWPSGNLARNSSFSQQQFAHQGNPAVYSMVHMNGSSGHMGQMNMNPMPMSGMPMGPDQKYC

[17] = biological target: Peroxisome proliferator-activated receptor gamma/Nuclear receptor coactivator 1 (Homo sapiens, UniProt P37231); assay type: functional;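 further: agonist potency as compounds enhance coactivator SRC-1 recruitment to PPARgamma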
[18] = biological target: Peroxisome proliferator-activated receptor gamma/Nuclear receptor coactivator 2 (Homo sapiens, UniProt P37231); assay type: functional;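 further: agonist potency for raising coactivator recruitment to the receptor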
[19] = Luminescence Cell-Based Dose Response HTS to Identify Activators of Luciferase Translation or Activity in H4 […] Cells. [Related pubchem assays: 1829 (Project Summary), 1814 (Primary HTS)]; assay type: functional

Genome polyprotein, sequence (Q2Q167 whole entry): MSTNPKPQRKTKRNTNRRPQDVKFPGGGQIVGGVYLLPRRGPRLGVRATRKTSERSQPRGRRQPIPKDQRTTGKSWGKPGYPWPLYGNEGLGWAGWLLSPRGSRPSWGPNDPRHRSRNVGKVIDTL

In the case of `Cc1cccc2c(N=Nc3ccc(S(=O)(=O)Nc4ccc(Cl)cc4)cc3[N+](=O)[O-])c(O)[nH]c12`, the IC50 (Genome polyprotein) is reported as > 49.8 µM (not active).
In the case of `CCNc1ccc(Br)cc(C(=O)/C=C/c2ccc3c(c2)OCO3)c1=O`, the IC50 (Protein Tat) is reported as 29.1 µM (inconclusive), the AC50 (Cytochrome P450 2D6) is reported as 8.91 µM (inconclusive) and the IC50 (Ephrin type-A receptor 4) is reported as 5.22 µM (active). The IC50 [1] was 2.58 µM (active).
With `COc1cc(/C=C2\SC(=S)N(Nc3ncc(C(F)(F)F)cc3Cl)C2=O)cc(OC)c1OC` the IC50 (Ephrin type-A receptor 4) was 3.57 µM (active).
In the case of `O=C1CC(C(=O)Nc2ccc(Br)cc2)C2(CCCC2)O1` (stereo not drawn), the AC50 (Caspase-6) is reported as 6.92 µM (active).
With `Cc1sc(-c2ccncc2)nc1OC(=O)c1ccc(F)cc1F` the EC50 (Kallikrein-7) was 26.5 µM (inactive).
For `COC(=O)c1ccc(C)c(NC(=O)CCSc2ccccc2)c1`, the IC50 (Protein Tat) was 65.1 µM (inconclusive).
With `COc1ccc(C2C(C#N)=C(N)Oc3cc(O)ccc32)cc1Cl` (stereo not drawn) the AC50 (cells [2]) was 19.9 µM (active).
In the case of `Cc1cccc(Nc2nc(-c3ccccc3)cs2)n1`, the EC50 (cells [3]) is reported as > 67.5 µM (inactive) and the EC50 [4] is reported as > 67.5 µM (inactive).
With `O=C(Nc1nc2cc3c(cc2s1)OCCO3)c1ccc([N+](=O)[O-])o1` the EC50 (Streptococcus) was > 150 µM (not active), the EC50 [5] was > 60 µM (not active) and the EC50 [6] was 16.6 µM (active). The EC50 [7] was 1.78 µM (active), the AC50 [8] was 26 µM (active) and the EC50 (Streptokinase A) was > 150 µM (not active).
In the case of `COc1cccc(-c2nc3cc(C)ccc3o2)c1`, the EC50 (HT-1080) is reported as > 50 µM (not active), the EC50 [9] is reported as > 100 µM (not active) and the AC50 [8] is reported as 26 µM (active). For the same compound, the EC50 (cells [3]) was > 67.6 µM (inactive) and the EC50 [4] was > 67.6 µM (inactive).
For `C[C@@H]1CN([C@H](C)CO)S(=O)(=O)c2ccc(C3=CCCCC3)cc2O[C@H]1CN(C)Cc1ccccc1`, the AC50 [10] was 11.4 µM (active).
For `O=C(Nc1ccccc1F)N1C[C@H]2[C@@H](c3ccccc31)[C@H](CO)N2C(=O)C1CC1`, the AC50 [11] was > 70 µM (inactive).
For `CO[C@@H]1CN(C)C(=O)c2ccc(NC(=O)c3ccc(Oc4ccccc4)cc3)cc2OC[C@@H](C)N(C(C)=O)C[C@H]1C`, the AC50 [10] was 24.2 µM (active).
In the case of `COc1ccc2c3c([nH]c2c1)[C@H](CO)N(S(=O)(=O)c1ccc(C)cc1)CC31CN(Cc2ccccc2)C1`, the AC50 [12] is reported as 17.5 µM (active) and the AC50 [13] is reported as > 39 µM (inactive).
For `Cc1ccc(S(=O)(=O)N[C@H]2CC[C@H](CCn3cc(C4CCCC4)nn3)O[C@@H]2CO)cc1`, the AC50 [12] was 13.6 µM (active) and the AC50 [13] was > 39 µM (inactive).
In the case of `Cc1cccn2c(=O)c3cc(C(=O)NCCN4CCOCC4)c(=N)n(CCc4ccccc4)c3nc12`, the EC50 [14] is reported as > 120 µM (not active), the AC50 (cells [15]) is reported as 31.4 µM (active) and the EC50 (H4) is reported as > 120 µM (not active). The EC50 [16] was > 79.4 µM (not active), the AC50 (cells [2]) was 1.28 µM (active) and the EC50 [17] was > 79.4 µM (not active). The EC50 [18] was > 79.4 µM (not active) and the EC50 [19] was 11 µM (active).
